Test results taken from patent publication US11873499B2, “Methods of increasing nutrient use efficiency” (Institute of Genetics and Developmental Biology Chinese …, priority 2018, dated 2024).

Columns and labels:
[1] = test system: NJ6 and NJ6-sd1 rice plants; assay: 15N uptake analysis (root 15NH4+ uptake rate) in rice plants treated with GA and/or PAC; type: in vivo; settings: FIG. 4a; for 15NH4+ uptake rate: 100 μM GA (GA3) and/or 2 μM paclobutrazol (PAC)
From the text: (§1) Data shown as mean±s.e.m. (n=9). b, Relative root mRNA abundance in plants treated with GA and/or paclobutrazol (PAC). Data shown as mean±s.e.m. (n=3). c, Extent of ChIP-PCR OsGRF4-mediated enrichment of GCGG-containing promoter fragments from OsAMT1.1 (fragment 5) and OsGS1.2 (fragment 2) (shown in FIG. 2i) varies in response to treatment with GA and/or PAC. Data shown as mean±s.e.m. (n=3). d, BiFC assays reveal mutual interactions between SLR1, OsGRF4 and OsGIF1 in nuclei of tobacco leaf epidermal cell nuclei. Scale bar, 60 μm. e, Co-IP experiments with Flag-tagged SLR1 and HA-tagged OsGRF4 or HA-tagged OsGIF1. f, FRET images. Donor group: OsGIF1-CFP only; Acceptor group: OsGRF4-YFP only; FRET groups: OsGIF1-CFP and OsGRF4-YFP with and without SLR1. Scale bar, 200 μm. g, Mean N-FRET data for OsGIF1-CFP and OsGRF4-YFP channels. Data shown as mean±s.e.m. (n=6). […] OsGRF4-activated promotion of pOsAMT1.1 and pOsGS1.2 promoter::Luciferase fusion constructs is enhanced by OsGIF1 and inhibited by SLR1. Data shown as mean±s.e.m. (n=6). Statistical analyses used Duncan's multiple range tests, the same lowercase letter denotes non-significant difference between means (P>0.05; panels a-c, and i).
Hydroponic culture conditions were modified from those of Liu (2004)^32. Seeds were disinfected in 20% sodium hypochlorite solution for 30 min, thoroughly washed with deionized water, and then germinated in moist Perlite. 7-day-old seedlings were then selected and transplanted to PVC pots containing 40 L+N nutrient solution (1.25 mM NH4NO3, 0.5 mM NaH2PO4·2H2O, 0.75 mM K2SO4, 1 mM CaCl2), 1.667 mM MgSO4.7H2O, 40 μM Fe-EDTA (Na), 19 μM H3BO3, 9.1 μM MnSO4·H2O, 0.15 μM ZnSO4·7H2O, 0.16 μM CuSO4, and 0.52 μM […], pH 5.5). […]
Following growth in hydroponic culture for 4 weeks, rice root ^15NO3^− and ^15NH4^+ influx measurements were as described elsewhere^37,38. […] Roots and shoots were dried overnight at 80° C., and the ^15N content was measured using the Isoprime 100 (Elementar, Germany).

[2] = test system: OsAMT1.1 and OsGS1.2 mRNA; assay: qRT-PCR relative root mRNA abundance in plants treated with GA and/or PAC; type: in vivo, rice; settings: FIG. 4b
From the text: as §1
Total RNAs were extracted from different rice plant organs using the TRIzol reagent (Invitrogen), and then treated with RNase-free DNase I (Invitrogen) according to the manufacturer's protocol. […]

[3] = test system: OsAMT1.1 and OsGS1.2 promoters; assay: ChIP-PCR OsGRF4-mediated enrichment of GCGG-containing promoter fragments; type: in vivo, rice; settings: treated with GA and/or PAC; FIG. 4c
From the text: as §1, with “Statistical analyses used Duncan's multiple range tests, the same lowercase letter denotes non-significant difference between means (P>0.05; panels a-c, and i).” left out
˜2 g of two-week-old seedlings of transgenic p35S::flag-OsGRF4^ngr2 rice plants were fixed with 1% formaldehyde under vacuum for 15 min at 20-25° C., and then homogenized in liquid nitrogen. […] The reverse-crosslinked and precipitated DNA then served as template for quantitative RT-PCR.

Glutamine synthase = Glutamine synthase (GS) activity in roots and shoots of treated rice plants; type: in vivo; settings: roots and shoots of 2-week-old rice plants; 100 μM GA (GA3); FIG. 13
Protocol: Data shown as mean±s.e.m. (n=3). b, GS activities in shoots of plants treated with 100 μM GA (GA3) and/or 2 μM paclobutrazol (PAC), genotypes as indicated. Data shown as mean±s.e.m. (n=3).
Glutamine synthase and nitrate reductase activities were respectively determined with the Glutamine Synthetase Kit (Solarbio LIFE SCIENCES, BC0910) and the Nitrate Reductase Kit (Solarbio LIFE SCIENCES, BC0080) following the manufacturer's instructions.

[4] = test system: pOscycA1;1 and pOscdc2Os-3 promoters; assay: Transient transactivation assay (promoter::Luciferase) in rice protoplasts; type: cell-based; settings: FIG. 5f
From the text: Data shown as mean±s.e.m. (n=3). Abundances expressed relative to the level in NJ6-sd1. b, ChIP-PCR assays. Diagram depicts the OsPsbS1, OsTPS1 and OsSWEET11 promoters and regions used for ChIP-PCR. c, Transactivation assays. Data shown as mean±s.e.m. (n=9). d, Relative abundances of mRNAs transcribed from cell-cycle regulatory genes. Data shown as mean±s.e.m. (n=3). Abundances expressed relative to the level in NJ6-sd1. e, ChIP-PCR assays. Diagram depicts the OscycA1.1 and Oscdc2Os-3 promoters and regions used for Chl P-PCR. f, Transactivation assays. Data shown as mean±s.e.m. (n=12). Statistical analyses used Duncan's multiple range tests, the same lowercase letter denotes a non-significant difference between means (P>0.05).
˜3-kb DNA promoter fragments from each of OsAMT1.1, OsAMT1.2, OsGS1.2, OsGS2, OsNADH-GOGAT2, OsFd-GOGAT, OsCAB1, OsTPS1, OsSWEET11, OscycA1;1 or Oscdc2Os-3 were amplified from NJ6, and then subcloned into a pUC19 vector containing the firefly LUC reporter gene driven by the 35S minimal TATA box and 5×GAL4 binding elements, thus generating reporter plasmids containing specific promoters fused to LUC. The full-length OsGRF4 cDNA was amplified and fused to sequence encoding GAL4BD, thus generating the effector plasmid pRTBD-OsGRF4. Transient transactivation assays were performed using rice protoplasts as described elsewhere^36. […]

OsGRF4 mRNA = OsGRF4 mRNA abundance, effect of GA and PAC; type: in vivo, rice; settings: FIG. 15e, f
From the text: In the absence of GA, SLR1 inhibits OsGRF4-OsGIF1 promotion of OsGRF4 transcription. In the presence of GA, SLR1 is destroyed via proteasome-mediated degradation, this promoting OsGRF4-OsGIF1 activated OsGRF4 transcription.
Total RNAs were extracted from different rice plant organs using the TRIzol reagent (Invitrogen), and then treated with RNase-free DNase I (Invitrogen) according to the manufacturer's protocol. Full-length cDNA was then reverse-transcribed using a cDNA synthesis kit (TRANSGEN, AE311). Subsequent qRT-PCR was performed according to the manufacturer's instructions (TRANSGEN, AQ101), using three independent RNA preparations as biological replicates. Rice Actin2 gene transcripts were used as a reference.

Row | OsGRF4-OsGIF1 complex activation of transcription from pOscycA1;1 and pOscdc2Os-3 promoters [4] | Compound | 15NH4+ uptake rate [1] | OsAMT1.1 and OsGS1.2 mRNA abundances [2] | ChIP-PCR enrichment of GCGG motif-containing fragments from the OsAMT1.1 and OsGS1.2 promoters [3] | effect on the PAC-caused reduction of 15NH4+ uptake ([1]; GA together with PAC) | GS activity (Glutamine synthase) | OsGRF4 mRNA abundance (OsGRF4 mRNA)
1 | – | CC(C)(C)[C@@H](O)[C@@H](Cc1ccc(Cl)cc1)n1cncn1 (racemic) [PAC, paclobutrazol] | reduces | reduced | reduces | – | – | –
2 | promotes | C=C1C[C@]23C[C@@]1(O)CC[C@H]2[C@@]12C=C[C@H](O)[C@@](C)(C(=O)O1)[C@H]2[C@@H]3C(=O)O [GA, Gibberellic acid] | promotes | increased | promotes | abolishes this effect | promotes | GA-regulated
